Patent US20080221205A1, “FURAN DERIVATIVES FOR PREVENTING AND CURING OSTEOPOROSIS AND PHARMACEUTICAL COMPOSITIONS CONTAINING THE SAME” (priority 2002, published 2008)
“Also recorded” adds a separate entry of the source.

What was measured:
[1] = tested on: Runx2; assay: Runx2 expression, p6xOSE2-Luc luciferase assay in C2C12 cells; type: cell-based, mouse; settings: concentration not given
Protocol: (§1) In the following tests, three kinds of cell lines were used. The human osteosarcoma cell lines, MG-63 (ATCC No. CRL-1427) and HOS (ATCC No. CRL-1543), and mouse muscle C2C12 muscle cells (ATCC No. CRL-1772) were purchased from ATCC (American Type Culture Collection, Rockville, USA), and cultured in Dulbecco's modified Eagle's medium (DMEM) supplemented with 10% fetal bovine serum (FBS).
Primarily, transient transfection was carried out using a p6xOSE2-Luc vector, which was prepared by inserting into a pGL3 promoter vector six tandem copies of the OSE2 motif, the binding site of the transcriptional factor Runx2 that is a critical regulator for osteoblast differentiation. Runx2 expression levels were determined by luciferase assay. The test procedure will be described in more detail, as follows.
C2C12 cells were plated onto 6-well plates at a density of 1 (10^5 cells per well, and cultured for 24 hrs in a 5% CO2 incubator.
Then, the cells transiently transfected with the p6xOSE2-Luc vector using a transfection reagent, LipofectAmine, as follows. The plasmid DNA was reacted with the transfection reagent for 15 min to form p6xOSE2-Luc DNA:lipofectamine complexes. During this reaction, culture medium was removed from each well of the plates, the cells were washed with FBS-free DMEM, and 800 μl of FBS-free DMEM was added to each well. […]

[2] = tested on: ovariectomized white mice; assay: Therapeutic effect on osteoporosis: tibia histology, oral administration from four weeks after ovariectomy; type: in vivo; settings: four weeks to develop osteoporosis, then oral 220 μl/day for four weeks, versus control
Protocol: In order to evaluate effects of the compound of the present invention on treatment and prevention of osteoporosis, female white mice with osteoporosis induced by ovariectomy were used as a disease model. After ovariectomy, mice were administered with the compound of the present invention. Tibias were dissected from the mice, and observed histologically.
After anesthetizing female white mice with 100 mg/kg of Ketamine (Ketara) and 0.15 ml/kg of 2% Xylazine (Rompun), the lumbar dorsum is shaved bilaterally and the exposed skin was prepared for aseptic surgery by a 10% povidone-iodine scrub followed by a 70% alcohol wipe.
A 1-cm incision was made in the central region of the abdomen, and the ovary was identified along with the uterus with caution not to damage the main organs such as the liver and diaphragm. After ligating the uterus with a thread for suturing, the exposed ovary was severed toward both sides and removed. Thereafter, each organ was relocated to its original position, and the incision was closed with a thread for suturing in an interrupted pattern. After ovariectomy, the mice were injected with 50 mg/kg of cefazolin antibiotic for prevention of infection with pathogens.
In order to evaluate therapeutic effect of the Compound 1 on osteoporosis, after ovariectomy, the mice were fed with solid feedstuff for four weeks. […]

[3] = tested on: osteoprotegerin (OPG); assay: Osteoprotegerin (OPG) expression in MG63 cells, OPG ELISA; type: cell-based, human; settings: concentration not given
Protocol: as §1
When MG63 cells grew confluently on 96-well plates, […] of FBS-free DMEM containing various concentrations of the Compound 1 was added to each well. After incubation for 16 hrs, the culture supernatants were collected. The amount of OPG released into the medium was determined using an OPG ELISA kit.

O=Cc1ccc(CO)o1 [Compound 1, 5-hydroxymethylfuran-2-carboxyaldehyde]
Activity of Runx2 (in words) [1]: increase the activity of Runx2
Trabecular bone density of tibia, light microscopy [2]: just a slight decrease in trabecular bone density; also recorded: no trabecular bone loss
Expression of osteoprotegerin (OPG) in osteoblasts (in words) [3]: increases the expression of osteoprotegerin (OPG)
